pIC50: −log10 of the molar value.
Each compound was assayed against human TRPA1 (Homo sapiens (Human), UniProt O75762) (assay: In vitro inhibition of human TRPA1, whole cell patch configuration). Conditions: current activation 10 μM AITC, tested concentrations 320 pM to 3.2 μM, read-out: hTRPA1 IC50.
Assay type: cell-based
Description: All currents were recorded in whole-cell configuration using EPC-9 and EPC-10 amplifiers and Patchmaster software (HEKA) or similar. […] The standard bath solution contained 150 mM NaCl, 10 mM HEPES, 10 mM glucose, 4.5 mM KCl, 1 mM EGTA, 3 mM MgCl2, with pH adjusted to 7.4 with NaOH. In some instances, 2 mM CaCl2 was added in place of EGTA and the concentration of MgCl2 was reduced to 1 mM.
Data were collected either by continuous recordings at −60 mV or by applying voltage ramps from a holding potential of −40 mV every 4 s. Continuous recordings were collected at 400 Hz and digitally filtered off-line at 10 Hz for presentation. Voltage ramps were applied from −100 mV or −80 mV to +100 mV or +80 mV over the course of 400 ms, and data were collected at 10 kHz and filtered at 2.9 kHz. Inward and outward currents were analyzed from the ramps at −80 and 80 mV, respectively. Liquid junction potential correction was not used.
Solutions were switched using a gravity-fed continuous focal perfusion system. To achieve rapid temperature changes, two temperature control, and perfusion systems were employed simultaneously. […] Temperatures were confirmed using a thermistor (Warner Instruments, TA-29), with temperatures at the recorded cell estimated to be within +/−2° C. of those reported.
The antagonist effects of compounds of Formula (I) against human TRPA1 (“hTRPA1”) in a whole cell patch configuration were evaluated using the in vitro assay described above.

human TRPA1, sequence (O75762 whole entry): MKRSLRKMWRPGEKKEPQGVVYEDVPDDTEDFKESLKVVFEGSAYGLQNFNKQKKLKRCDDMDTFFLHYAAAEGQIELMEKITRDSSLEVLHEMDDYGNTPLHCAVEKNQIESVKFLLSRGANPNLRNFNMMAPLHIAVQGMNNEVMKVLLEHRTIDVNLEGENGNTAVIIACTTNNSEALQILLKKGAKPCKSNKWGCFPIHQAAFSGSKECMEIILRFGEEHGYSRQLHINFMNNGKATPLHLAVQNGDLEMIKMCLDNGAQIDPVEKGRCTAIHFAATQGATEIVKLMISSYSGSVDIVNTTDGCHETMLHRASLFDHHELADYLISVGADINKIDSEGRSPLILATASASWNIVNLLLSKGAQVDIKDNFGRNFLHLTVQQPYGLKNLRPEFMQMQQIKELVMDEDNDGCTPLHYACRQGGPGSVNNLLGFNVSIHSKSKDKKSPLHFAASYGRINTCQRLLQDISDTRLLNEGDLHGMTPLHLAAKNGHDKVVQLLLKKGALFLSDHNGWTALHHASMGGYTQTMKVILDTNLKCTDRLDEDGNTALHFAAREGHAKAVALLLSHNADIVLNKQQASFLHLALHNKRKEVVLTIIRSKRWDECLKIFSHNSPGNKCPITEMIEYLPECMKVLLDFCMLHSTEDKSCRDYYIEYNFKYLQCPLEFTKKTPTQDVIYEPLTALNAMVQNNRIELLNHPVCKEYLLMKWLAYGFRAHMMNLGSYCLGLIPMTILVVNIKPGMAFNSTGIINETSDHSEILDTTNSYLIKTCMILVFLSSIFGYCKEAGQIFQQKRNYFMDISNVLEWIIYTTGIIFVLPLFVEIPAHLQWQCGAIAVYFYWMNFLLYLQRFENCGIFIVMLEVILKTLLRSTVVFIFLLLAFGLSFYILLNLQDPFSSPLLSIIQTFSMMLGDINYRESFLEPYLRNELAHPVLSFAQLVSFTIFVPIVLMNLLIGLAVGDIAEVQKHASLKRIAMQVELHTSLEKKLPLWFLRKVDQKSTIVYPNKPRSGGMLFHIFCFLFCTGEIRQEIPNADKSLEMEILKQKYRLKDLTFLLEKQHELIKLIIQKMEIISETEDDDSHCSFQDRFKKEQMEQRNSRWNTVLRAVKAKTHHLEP

Row | Compound | pIC50
1 | C[C@@H](C(=O)Nc1ccnc(-c2cnc(N3CCC[C@H]3C(F)(F)F)nc2)n1)n1cnc2c1c(=O)n(CC#N)c(=O)n2C [Compound 54, (S)-2-(1-(cyanomethyl)-3-methyl-2,6-dioxo-2,3-dihydro-1H-purin-7(6H)-yl)-N-(2′-((S)-2-(trifluoromethyl)pyrrolidin-1-yl)-2,5′-bipyrimidin-4-yl)propanamide] | 8.15
2 | COCC(=O)Cn1c(=O)c2c(ncn2[C@@H](C)C(=O)Nc2cccc(-c3cnc(C(F)(F)F)nc3)n2)n(C)c1=O [Compound 59, (S)-2-(1-(3-methoxy-2-oxopropyl)-3-methyl-2,6-dioxo-2,3-dihydro-1H-purin-7(6H)-yl)-N-(6-(2-(trifluoromethyl)pyrimidin-5-yl)pyridin-2-yl)propanamide] | 7.35
3 | C[C@@H](C(=O)Nc1cncc(-c2cnc(N3CC4C(C3)C4(F)F)nc2)n1)n1cnc2c1c(=O)n(CC#N)c(=O)n2C (stereo partly drawn) [Compound 60, (2S)-2-(1-(cyanomethyl)-3-methyl-2,6-dioxo-2,3-dihydro-1H-purin-7(6H)-yl)-N-(6-(2-(6,6-difluoro-3-azabicyclo[3.1.0]hexan-3-yl)pyrimidin-5-yl)pyrazin-2-yl)propanamide] | 8.15
4 | CCC(=O)Cn1c(=O)c2c(ncn2[C@@H](C)C(=O)Nc2ccnc(-c3cnc(N4CC5C(C4)C5(F)F)nc3)n2)n(C)c1=O (stereo partly drawn) [Compound 62, (2S)—N-(2′-(6,6-difluoro-3-azabicyclo[3.1.0]hexan-3-yl)-[2,5′-bipyrimidin]-4-yl)-2-(3-methyl-2,6-dioxo-1-(2-oxobutyl)-2,3-dihydro-1H-purin-7(6H)-yl)propanamide] | 8.30
5 | C[C@@H](C(=O)Nc1csc(-c2ccc(N3CC4CC4C3)nc2)n1)n1cnc2c1c(=O)n(CC#N)c(=O)n2C (stereo partly drawn) [Compound 64, (2S)—N-(2-(6-(3-azabicyclo[3.1.0]hexan-3-yl)pyridin-3-yl)thiazol-4-yl)-2-(1-(cyanomethyl)-3-methyl-2,6-dioxo-2,3-dihydro-1H-purin-7(6H)-yl)propanamide] | 8.70
6 | CC(=O)Cn1c(=O)c2c(ncn2[C@@H](C)C(=O)Nc2cccc(-c3ccc(N4CC5C(C4)C5(F)F)nc3)n2)n(C)c1=O (stereo partly drawn) [Compound 65] | 8.10
7 | C[C@@H](C(=O)Nc1csc(-c2ccc(N3CC4CC4C3)nc2)n1)n1cnc2c1c(=O)n(CC#N)c(=O)n2C (stereo partly drawn) [Compound 66, (2S)—N-(2-(6-(3-azabicyclo[3.1.0]hexan-3-yl)pyridin-3-yl)thiazol-4-yl)-2-(1-(cyanomethyl)-3-methyl-2,6-dioxo-2,3-dihydro-1H-purin-7(6H)-yl)propanamide] | 8.70
8 | C[C@@H](C(=O)Nc1ccnc(-c2cnc(N3CC4C(C3)C4(F)F)nc2)n1)n1cnc2c1c(=O)n(CC#N)c(=O)n2C (stereo partly drawn) [Compound 67, (2S)-2-(1-(cyanomethyl)-3-methyl-2,6-dioxo-2,3-dihydro-1H-purin-7(6H)-yl)-N-(2′-(6,6-difluoro-3-azabicyclo[3.1.0]hexan-3-yl)-[2,5′-bipyrimidin]-4-yl)propanamide] | 8.15
9 | CCC(=O)Cn1c(=O)c2c(ncn2[C@@H](C)C(=O)Nc2cccc(-c3ccc(N4CC5C(C4)C5(F)F)nc3)n2)n(C)c1=O (stereo partly drawn) [Compound 68, (2S)—N-(6′-(6,6-difluoro-3-azabicyclo[3.1.0]hexan-3-yl)-[2,3′-bipyridin]-6-yl)-2-(3-methyl-2,6-dioxo-1-(2-oxobutyl)-2,3-dihydro-1H-purin-7(6H)-yl)propanamide] | 8.30
10 | CC(=O)Cn1c(=O)c2c(ncn2[C@@H](C)C(=O)Nc2ccnc(-c3ccc(N4CC5C(C4)C5(F)F)nc3)n2)n(C)c1=O (stereo partly drawn) [Compound 69, (2S)—N-(2-(6-(6,6-difluoro-3-azabicyclo[3.1.0]hexan-3-yl)pyridin-3-yl)pyrimidin-4-yl)-2-(3-methyl-2,6-dioxo-1-(2-oxopropyl)-2,3-dihydro-1H-purin-7(6H)-yl)propanamide] | 8.15
11 | CCC(=O)Cn1c(=O)c2c(ncn2[C@@H](C)C(=O)Nc2ccnc(-c3ccc(N4CC5C(C4)C5(F)F)nc3)n2)n(C)c1=O (stereo partly drawn) [Compound 70, (2S)—N-(2-(6-(6,6-difluoro-3-azabicyclo[3.1.0]hexan-3-yl)pyridin-3-yl)pyrimidin-4-yl)-2-(3-methyl-2,6-dioxo-1-(2-oxobutyl)-2,3-dihydro-1H-purin-7(6H)-yl)propanamide] | 8.30
12 | CNC(=O)Cn1c(=O)c2c(ncn2[C@@H](C)C(=O)Nc2csc(-c3cnc(N4CC5CC5C4)nc3)n2)n(C)c1=O (stereo partly drawn) [Compound 71, (2S)—N-(2-(2-(3-azabicyclo[3.1.0]hexan-3-yl)pyrimidin-5-yl)thiazol-4-yl)-2-(3-methyl-1-(2-(methylamino)-2-oxoethyl)-2,6-dioxo-2,3-dihydro-1H-purin-7(6H)-yl)propanamide] | 7.36
13 | CC(=O)Cn1c(=O)c2c(ncn2[C@@H](C)C(=O)Nc2cncc(-c3ccc(N4CC5C(C4)C5(F)F)nc3)n2)n(C)c1=O (stereo partly drawn) [Compound 76, (2S)—N-(6-(6-(6,6-difluoro-3-azabicyclo[3.1.0]hexan-3-yl)pyridin-3-yl)pyrazin-2-yl)-2-(3-methyl-2,6-dioxo-1-(2-oxopropyl)-2,3-dihydro-1H-purin-7(6H)-yl)propanamide] | 8.00
14 | Cc1cc(Cn2c(=O)c3c(ncn3[C@@H](C)C(=O)Nc3cccc(-c4noc(C(F)(F)F)n4)n3)n(C)c2=O)no1 [Compound 78] | 7.07
15 | CC(=O)Cn1c(=O)c2c(ncn2[C@@H](C)C(=O)Nc2csc(-c3cnc(C)c(Cl)c3)n2)n(C)c1=O [Compound 81, (S)—N-(2-(5-chloro-6-methylpyridin-3-yl)thiazol-4-yl)-2-(3-methyl-2,6-dioxo-1-(2-oxopropyl)-2,3-dihydro-1H-purin-7(6H)-yl)propanamide] | 8.00
16 | CC(=O)Cn1c(=O)c2c(ncn2[C@@H](C)C(=O)Nc2csc(-c3cnc(C(F)(F)F)c(C)c3)n2)n(C)c1=O [Compound 82, (S)-2-(3-methyl-2,6-dioxo-1-(2-oxopropyl)-2,3-dihydro-1H-purin-7(6H)-yl)-N-(2-(5-methyl-6-(trifluoromethyl)pyridin-3-yl)thiazol-4-yl)propanamide] | 8.30

More lines, in order of rising pIC50, values ahead:

Row | pIC50 | Compound
17 | 8.30 | Cc1cc(Cn2c(=O)c3c(ncn3[C@@H](C)C(=O)Nc3cncc(-c4cncc(C(F)(F)F)c4)n3)n(C)c2=O)no1 [Compound 55, (S)-2-(3-methyl-1-((5-methylisoxazol-3-yl)methyl)-2,6-dioxo-2,3-dihydro-1H-purin-7(6H)-yl)-N-(6-(5-(trifluoromethyl)pyridin-3-yl)pyrazin-2-yl)propanamide]
18 | 8.52 | CC(=O)Cn1c(=O)c2c(ncn2[C@@H](C)C(=O)Nc2csc(-c3cnc(N4CC5C(C4)C5(F)F)nc3)n2)n(C)c1=O (stereo partly drawn) [Compound 56, (2S)—N-(2-(2-(6,6-difluoro-3-azabicyclo[3.1.0]hexan-3-yl)pyrimidin-5-yl)thiazol-4-yl)-2-(3-methyl-2,6-dioxo-1-(2-oxopropyl)-2,3-dihydro-1H-purin-7(6H)-yl)propanamide]
19 | 8.52 | CCC(=O)Cn1c(=O)c2c(ncn2[C@@H](C)C(=O)Nc2cncc(-c3cnc(N4CC5C(C4)C5(F)F)nc3)n2)n(C)c1=O (stereo partly drawn) [Compound 75, (2S)—N-(6-(2-(6,6-difluoro-3-azabicyclo[3.1.0]hexan-3-yl)pyrimidin-5-yl)pyrazin-2-yl)-2-(3-methyl-2,6-dioxo-1-(2-oxobutyl)-2,3-dihydro-1H-purin-7(6H)-yl)propanamide]
20 | 8.70 | CCC(=O)Cn1c(=O)c2c(ncn2[C@@H](C)C(=O)Nc2csc(-c3cnc(N4CC5C(C4)C5(F)F)nc3)n2)n(C)c1=O (stereo partly drawn) [Compound 57, (2S)—N-(2-(2-(6,6-difluoro-3-azabicyclo[3.1.0]hexan-3-yl)pyrimidin-5-yl)thiazol-4-yl)-2-(3-methyl-2,6-dioxo-1-(2-oxobutyl)-2,3-dihydro-1H-purin-7(6H)-yl)propanamide]
21 | 8.70 | C[C@@H](C(=O)Nc1csc(-c2cnc(N3CC4C(C3)C4(F)F)nc2)n1)n1cnc2c1c(=O)n(CC#N)c(=O)n2C (stereo partly drawn) [Compound 58, (2S)-2-(1-(cyanomethyl)-3-methyl-2,6-dioxo-2,3-dihydro-1H-purin-7(6H)-yl)-N-(2-(2-(6,6-difluoro-3-azabicyclo[3.1.0]hexan-3-yl)pyrimidin-5-yl)thiazol-4-yl)propanamide]
22 | 8.70 | CC(=O)Cn1c(=O)c2c(ncn2[C@@H](C)C(=O)Nc2csc(-c3ccc(N4CC5CC5C4)nc3)n2)n(C)c1=O (stereo partly drawn) [Compound 63, (2S)—N-(2-(6-(3-azabicyclo[3.1.0]hexan-3-yl)pyridin-3-yl)thiazol-4-yl)-2-(3-methyl-2,6-dioxo-1-(2-oxopropyl)-2,3-dihydro-1H-purin-7(6H)-yl)propanamide]
23 | 8.70 | C[C@@H](C(=O)Nc1cncc(-c2ccc(N3CC4C(C3)C4(F)F)nc2)n1)n1cnc2c1c(=O)n(CC#N)c(=O)n2C (stereo partly drawn) [Compound 77]
24 | 9.00 | CCC(=O)Cn1c(=O)c2c(ncn2[C@@H](C)C(=O)Nc2csc(-c3ccc(N4CC5C(C4)C5(F)F)nc3)n2)n(C)c1=O (stereo partly drawn) [Compound 80, (2S)—N-(2-(6-(6,6-difluoro-3-azabicyclo[3.1.0]hexan-3-yl)pyridin-3-yl)thiazol-4-yl)-2-(3-methyl-2,6-dioxo-1-(2-oxobutyl)-2,3-dihydro-1H-purin-7(6H)-yl)propanamide]

Source: patent publication US10221177B2 (HYDRA BIOSCIENCES, INC., priority 2014, dated 2019)
